Reference: US7057171B2, “Patch-clamping and its use in analyzing subcellular features” (priority 2001, dated 2006)

Test system: Cl^− channel
Assay: Whole-cell Cl^− current recording (patch-clamp) in rat cardiac myocytes
Assay type: cell-based
Conditions: rat left ventricle cardiac myocytes, currents measured at plateau level, 30 μM nifedipine in bath
Description: FIG. 4: Channels with 3 different current types were found. (A) A small-conductance inwardly rectifying channel (ClSIR). (B) A large-conductance inwardly rectifying channel (ClLIR). (C) An outwardly rectifying channel (ClOR). For each type of channel, a family of currents at different voltages (on the left side of the panels), current-voltage characteristics (on the top right side of the panels) and channel densities at different surface positions (on the bottom right side of the panels) are shown. The mean reversal potential was −31.2±2.4 mV (n=5) for (A)−31.8±3.4 mV (n=5) for (B) and −33.5±3.0 mV (n=4) for (C). (D) Calculated whole-cell current extrapolated from single-channel currents. (E) Current-voltage characteristics of experimental whole-cell currents obtained from 22 cells (black circles). […] Currents were measured at plateau level.
Left ventricle cells from the rat myocardium were isolated as previously described (Harding et al, J. Mol. Cell Cardiol. 20:635–647, 1988). Cells were allowed to attach to polystyrene cell culture dishes filled with bath solutions.
the bath solution contained (in mM) K-glutamate 120, KCl 25, MgCl2 2, CaCl2 1, EGTA 2, glucose 10 and HEPES 10, adjusted to pH 7.4 with CsOH. The pipette backfill solution contained N-methyl-D-glucamine-Cl (NMDG-Cl) 108, HEPES 5, glucose 5.5 and EGTA 1, adjusted to pH 7.4 with TEA-OH. […]

SMILES | Block of experimental whole-cell Cl^− currents (1 mM, n=5) | Block of experimental whole-cell Cl^− currents (300 μM, n=12)
[Cd+2] [Cd^2+] | almost completely blocked | –
CC(=O)Nc1ccc(C=Cc2ccc(N=C=S)cc2S(=O)(=O)O)c(S(=O)(=O)O)c1 [SITS, stilbene disulfonate] | – | partially blocked
